Source: ChEMBL document CHEMBL5052837, “Ghrelin o-acyltransferase inhibitors” (2019)
Activity calls are given as the source filed them. The rule behind the calls is not given here.

Key:
[1] = test system: Rattus norvegicus; assay: In vivo inhibition of GOAT in fasting rat assessed as increase in des-acyl ghrelin level at 10 mg/kg; format: functional, organism-based
[2] = test system: Mus musculus; assay: In vivo inhibition of GOAT in fasting mouse assessed as reduction in acyl ghrelin level at 1 to 10 mg/kg, po administered twice a day for 2 days; format: functional, organism-based; conditions: dose 1-10 mg/kg, time 2.0 day
[3] = test system: Mus musculus; assay: In vivo inhibition of GOAT in high fat, high carb (HFHC) diet-induced obesity model of C57BL/6 mouse assessed as increase in des-acyl ghrelin level at 10 mg/kg; format: functional, organism-based
[4] = test system: Rattus norvegicus; assay: In vivo inhibition of GOAT in fasting rat assessed as reduction in acyl ghrelin level at 10 mg/kg; format: functional, organism-based
[5] = In vivo inhibition of GOAT in high fat, high carb (HFHC) diet-induced obesity model of C57BL/6 mouse assessed as reduction in acyl ghrelin level at 3 mg/kg; format: functional; parameters: scale not given: the % may be the effect or the level left
[6] = test system: Mus musculus; assay: In vivo inhibition of GOAT in high fat, high carb (HFHC) diet-induced obesity model of C57BL/6 mouse assessed as increase in des-acyl ghrelin level at 3 mg/kg; format: functional, organism-based

| SMILES | Activity [1] | Activity [2] | Activity [3] | Activity [4] | Activity [5] [%] | Activity [6] |
| --- | --- | --- | --- | --- | --- | --- |
| O=C(O)Cc1csc2cc(O[C@H]3CCc4ncccc43)cc(Cl)c12 | Active | Active | Active | Active | – | – |
| Cc1c(C(=O)NN2CCCCC2)nn(-c2ccc(Cl)cc2Cl)c1-c1ccc(Cl)cc1 [RIMONABANT] | – | – | – | – | 61 | Active |
